Assay results: US8445492B2, “Method for inhibiting growth of cancer cells and cell telomere and diseases of cell proliferation by using heteroannelated anthraquinone derivative compounds” (National Defense Medical Center, priority 2008, dated 2013)

What was measured:
Format in all cases: cell-based
[1] = system: OVCAR-5; test: NCI DTP in-vitro dose response, Ovarian Cancer
[2] = system: SK-OV-3; test: NCI DTP in-vitro dose response, Ovarian Cancer
[3] = system: IGROV1; test: NCI DTP in-vitro dose response, Ovarian Cancer
[4] = system: OVCAR-3; test: NCI DTP in-vitro dose response, Ovarian Cancer
[5] = system: OVCAR-4; test: NCI DTP in-vitro dose response, Ovarian Cancer
[6] = system: OVCAR-8; test: NCI DTP in-vitro dose response, Ovarian Cancer
[7] = system: MALME-3M; test: NCI DTP in-vitro dose response, Melanoma
[8] = system: UACC-62; test: NCI DTP in-vitro dose response, Melanoma
[9] = system: UACC-257; test: NCI DTP in-vitro dose response, Melanoma
[10] = system: SK-MEL-5; test: NCI DTP in-vitro dose response, Melanoma
[11] = system: M14; test: NCI DTP in-vitro dose response, Melanoma
[12] = system: LOX IMVI; test: NCI DTP in-vitro dose response, Melanoma
[13] = system: SK-MEL-28; test: NCI DTP in-vitro dose response, Melanoma
[14] = system: SK-MEL-2; test: NCI DTP in-vitro dose response, Melanoma

## O=C1c2ccccc2C(=O)c2c1ccc1nccnc21 [TABLE 5-6]
[1]
  CC50: > 100 µM
  TGI: >1.00E−4
[1]; Log10 Concentration −4.0
  Percent Growth: 19%
[1]; Log10 Concentration −5.0
  Percent Growth: 77%
[1]; Log10 Concentration −6.0
  Percent Growth: 98%
[1]; Log10 Concentration −7.0
  Percent Growth: 90%
[1]; Log10 Concentration −8.0
  Percent Growth: 97%
[1]; read-out: GI50
  GI50: 59.3 µM
[2]
  CC50: > 100 µM
  TGI: >1.00E−4
[2]; Log10 Concentration −4.0
  Percent Growth: 8%
[2]; Log10 Concentration −5.0
  Percent Growth: 44%
[2]; Log10 Concentration −6.0
  Percent Growth: 79%
[2]; Log10 Concentration −7.0
  Percent Growth: 89%
[2]; Log10 Concentration −8.0
  Percent Growth: 91%
[2]; read-out: GI50
  GI50: 6.95 µM
[3]
  CC50: > 100 µM
  GI50: 2.55 µM
  TGI: 3.59E−5
[3]; Log10 Concentration −4.0
  Percent Growth: −27%
[3]; Log10 Concentration −5.0
  Percent Growth: 33%
[3]; Log10 Concentration −6.0
  Percent Growth: 61%
[3]; Log10 Concentration −7.0
  Percent Growth: 74%
[3]; Log10 Concentration −8.0
  Percent Growth: 90%
[4]
  CC50: > 100 µM
  TGI: 1.25E−5
[4]; Log10 Concentration −4.0
  Percent Growth: −42%
[4]; Log10 Concentration −5.0
  Percent Growth: 4%
[4]; Log10 Concentration −6.0
  Percent Growth: 77%
[4]; Log10 Concentration −7.0
  Percent Growth: 95%
[4]; Log10 Concentration −8.0
  Percent Growth: 104%
[4]; read-out: GI50
  GI50: 2.34 µM
[5]
  CC50: > 100 µM
  TGI: >1.00E−4
[5]; Log10 Concentration −4.0
  Percent Growth: 3%
[5]; Log10 Concentration −5.0
  Percent Growth: 51%
[5]; Log10 Concentration −6.0
  Percent Growth: 74%
[5]; Log10 Concentration −7.0
  Percent Growth: 91%
[5]; Log10 Concentration −8.0
  Percent Growth: 102%
[5]; read-out: GI50
  GI50: 10.5 µM
[6]
  CC50: > 100 µM
  TGI: >1.00E−4
[6]; Log10 Concentration −4.0
  Percent Growth: 13%
[6]; Log10 Concentration −5.0
  Percent Growth: 36%
[6]; Log10 Concentration −6.0
  Percent Growth: 83%
[6]; Log10 Concentration −7.0
  Percent Growth: 89%
[6]; Log10 Concentration −8.0
  Percent Growth: 97%
[6]; read-out: GI50
  GI50: 5.07 µM

## O=C1c2ccccc2C(=O)c2c1ccc1nccnc21 [TABLE 5-5]
[7]
  CC50: 70.8 µM
  TGI: 2.07E−5
[7]; Log10 Concentration −4.0
  Percent Growth: −64%
[7]; Log10 Concentration −5.0
  Percent Growth: 30%
[7]; Log10 Concentration −6.0
  Percent Growth: 88%
[7]; Log10 Concentration −7.0
  Percent Growth: 91%
[7]; Log10 Concentration −8.0
  Percent Growth: 97%
[7]; read-out: GI50
  GI50: 4.48 µM
[8]
  CC50: > 100 µM
  TGI: 5.61E−5
[8]; Log10 Concentration −4.0
  Percent Growth: −20%
[8]; Log10 Concentration −5.0
  Percent Growth: 60%
[8]; Log10 Concentration −6.0
  Percent Growth: 87%
[8]; Log10 Concentration −7.0
  Percent Growth: 84%
[8]; Log10 Concentration −8.0
  Percent Growth: 92%
[8]; read-out: GI50
  GI50: 13.3 µM
[9]
  CC50: > 100 µM
  TGI: 6.83E−5
[9]; Log10 Concentration −4.0
  Percent Growth: −11%
[9]; Log10 Concentration −5.0
  Percent Growth: 58%
[9]; Log10 Concentration −6.0
  Percent Growth: 99%
[9]; Log10 Concentration −7.0
  Percent Growth: 88%
[9]; Log10 Concentration −8.0
  Percent Growth: 95%
[9]; read-out: GI50
  GI50: 13 µM
[10]
  CC50: 44.4 µM
  TGI: 1.71E−5
[10]; Log10 Concentration −4.0
  Percent Growth: −92%
[10]; Log10 Concentration −5.0
  Percent Growth: 28%
[10]; Log10 Concentration −6.0
  Percent Growth: 82%
[10]; Log10 Concentration −7.0
  Percent Growth: 90%
[10]; Log10 Concentration −8.0
  Percent Growth: 90%
[10]; read-out: GI50
  GI50: 3.93 µM
[11]
  CC50: > 100 µM
  TGI: >1.00E−4
[11]; Log10 Concentration −5.0
  Percent Growth: 34%
[11]; Log10 Concentration −6.0
  Percent Growth: 89%
[11]; Log10 Concentration −7.0
  Percent Growth: 91%
[11]; Log10 Concentration −8.0
  Percent Growth: 95%
[11]; read-out: GI50
  GI50: 5.14 µM
[12]
  CC50: > 100 µM
  TGI: 3.89E−5
[12]; Log10 Concentration −4.0
  Percent Growth: −22%
[12]; Log10 Concentration −5.0
  Percent Growth: 31%
[12]; Log10 Concentration −6.0
  Percent Growth: 81%
[12]; Log10 Concentration −7.0
  Percent Growth: 85%
[12]; Log10 Concentration −8.0
  Percent Growth: 90%
[12]; read-out: GI50
  GI50: 4.2 µM
[13]
  CC50: > 100 µM
  TGI: 9.11E−5
[13]; Log10 Concentration −4.0
  Percent Growth: −3%
[13]; Log10 Concentration −5.0
  Percent Growth: 75%
[13]; Log10 Concentration −6.0
  Percent Growth: 104%
[13]; Log10 Concentration −7.0
  Percent Growth: 101%
[13]; Log10 Concentration −8.0
  Percent Growth: 100%
[13]; read-out: GI50
  GI50: 21 µM
[14]
  CC50: > 100 µM
  TGI: 5.59E−5
[14]; Log10 Concentration −4.0
  Percent Growth: −20%
[14]; Log10 Concentration −5.0
  Percent Growth: 58%
[14]; Log10 Concentration −6.0
  Percent Growth: 102%
[14]; Log10 Concentration −7.0
  Percent Growth: 85%
[14]; Log10 Concentration −8.0
  Percent Growth: 97%
[14]; read-out: GI50
  GI50: 12.7 µM
